# Measurements reported in patent US20110306572A1, “COMBINATION THERAPY FOR THE TREATMENT OF CANCER USING COX-2 INHIBITORS AND DUAL InHIBITORS OF EGFR [ErbB1] AND HER-2 [ErbB2]” (TRAGARA PHARMACEUTICALS, INC, priority 2007, published 2011).
# Assays:
# [1] = human, in vivo
# [2] = patients taking lapatinib; cited from earlier work
structure (smiles),measurement,setting,value
CCOc1ccc(-c2cc(C)cn2-c2ccc(S(N)(=O)=O)cc2)cc1 [2-(4-ethoxyphenyl)-4-methyl-1-(4-sulfamoylphenyl)-pyrrole],gastric or duodenal toxicity,[1],no increase in gastric or duodenal toxicity
"CS(=O)(=O)CCNCc1ccc(-c2ccc3ncnc(Nc4ccc(OCc5cccc(F)c5)c(Cl)c4)c3c2)o1 [Lapatinib, N-(3-chloro-4-{[(3-fluorophenyl)methyl]oxy}phenyl)-6-[5-({[2-methylsulfonyl)ethyl]amino}methyl)-2-furanyl]-4-quinazolinamine bis(4-methylbenzenesulfonate) monohydrate, bis(4-methylbenzenesulfonate) …]","patients with common side effects (rash, diarrhea, fatigue, palmar plantar erythrodysesthesia, nausea and vomiting)",[2],greater than 20 % of patients
